Test results published in patent US12378224B2 (Dong-A Socio Holdings Co., Ltd., priority 2016, dated 2025).
pIC50: −log10 of the molar value.

Tests used:
[1] = molecular target: human c-MER catalytic domain (Homo sapiens (Human), UniProt Q12866); experiment: TR-FRET Kinase Activity Biochemical Assay (LanthaScreen); settings: 10 uM ATP, 1 hour, kinase not given
Procedure, shortened: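 Recombinant human c-MER catalytic domain phosphorylated fluorescein-labeled poly-GT substrate. The reaction was stopped with 10 mM EDTA, then 2 nM Tb-labeled anti-phosphotyrosine antibody was added for 30 min. Kinase activity was taken from the 495/520 nm TR-FRET emission ratio after 340 nm excitation.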

[2] = molecular target: CD8-MerTK (Ba/F3-CDM cells) (Homo sapiens, UniProt Q12866); experiment: In Cell MER Kinase Assay Using BaF3 Cellular System; type: cell-based; settings: Ba/F3-CDM proliferation without IL-3, 48 hours, Celltiter-Glo
CD8-MerTK (Ba/F3-CDM cells), sequence (Q12866 21-999 limits assumed, stated change not applied): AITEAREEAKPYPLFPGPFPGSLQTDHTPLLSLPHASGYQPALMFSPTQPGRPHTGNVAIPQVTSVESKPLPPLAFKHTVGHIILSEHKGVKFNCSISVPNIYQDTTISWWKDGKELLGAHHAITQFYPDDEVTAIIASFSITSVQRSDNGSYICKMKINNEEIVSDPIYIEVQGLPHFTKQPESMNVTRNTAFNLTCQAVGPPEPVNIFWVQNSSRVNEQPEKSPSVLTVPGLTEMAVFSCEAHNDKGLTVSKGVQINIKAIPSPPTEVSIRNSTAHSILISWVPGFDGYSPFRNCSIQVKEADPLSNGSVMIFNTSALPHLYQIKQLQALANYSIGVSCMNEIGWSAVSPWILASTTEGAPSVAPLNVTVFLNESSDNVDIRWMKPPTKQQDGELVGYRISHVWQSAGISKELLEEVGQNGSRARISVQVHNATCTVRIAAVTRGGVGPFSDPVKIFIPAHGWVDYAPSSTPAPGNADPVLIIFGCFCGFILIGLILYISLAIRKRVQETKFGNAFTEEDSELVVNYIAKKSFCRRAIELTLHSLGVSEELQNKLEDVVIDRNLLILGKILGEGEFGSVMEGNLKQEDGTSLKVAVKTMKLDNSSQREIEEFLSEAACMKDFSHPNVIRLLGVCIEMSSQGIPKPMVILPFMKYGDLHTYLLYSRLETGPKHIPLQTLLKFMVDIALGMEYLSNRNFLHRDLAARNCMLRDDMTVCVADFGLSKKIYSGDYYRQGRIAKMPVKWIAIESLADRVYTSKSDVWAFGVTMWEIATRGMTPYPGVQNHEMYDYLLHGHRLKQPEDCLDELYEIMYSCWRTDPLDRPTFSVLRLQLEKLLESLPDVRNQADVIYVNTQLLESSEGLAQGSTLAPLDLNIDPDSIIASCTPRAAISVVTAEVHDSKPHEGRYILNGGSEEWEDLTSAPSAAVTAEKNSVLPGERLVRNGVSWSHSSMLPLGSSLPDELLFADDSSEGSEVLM
Description: CD8-MerTK is a chimeric fusion protein consisting of the extracellular and transmembrane domains of the human CD8α (amino acids 1 to 209) at its N-terminus and the kinase domain and intracellular parts of MerTK (amino acids 521-994) at its C-terminus. To establish an in cell kinase assay for MerTK kinase, the IL-3 dependent Ba/F3 cells of murine lymphoid origin was transfected with CD8-MerTK. The resulting Ba/F3-CDM line was then validated that Ba/F3-CDM cell proliferation is completely dependent on the activity of MerTK kinase activity when growing in the absence of IL-3. For a routine cellular assay, Ba/F3-CDM cells were seeded at 2,000 cells per well in 384-well cell culture plate containing DMEM/10% FBS culture media and incubated for 24 hours before addition of compounds pre-diluted in culture media. Following compound treatment, cells were further incubated for 48 hours and the proliferation was measured. To discriminate a Ba/F3 growth inhibition by a specific inhibition of MerTK kinase following compound treatment vs growth inhibition due to a non-specific unintended cytotoxicity of compounds, we routinely carried out control sets of Ba/F3 cells in parallel that grown in IL3-supplemented growth media. In the presence of IL-3, the proliferation of Ba/F3 is no longer dependent on the MerTK activity. Cell growth and proliferation was measured with Celltiter-Glo™ system (Promega, USA) according to the manufacturer's instruction. The half-maximal growth inhibitory concentration (GI50) value was calculated with Prism6.0 software (GraphPad, USA).

human c-MER catalytic domain, sequence (Q12866 587-858): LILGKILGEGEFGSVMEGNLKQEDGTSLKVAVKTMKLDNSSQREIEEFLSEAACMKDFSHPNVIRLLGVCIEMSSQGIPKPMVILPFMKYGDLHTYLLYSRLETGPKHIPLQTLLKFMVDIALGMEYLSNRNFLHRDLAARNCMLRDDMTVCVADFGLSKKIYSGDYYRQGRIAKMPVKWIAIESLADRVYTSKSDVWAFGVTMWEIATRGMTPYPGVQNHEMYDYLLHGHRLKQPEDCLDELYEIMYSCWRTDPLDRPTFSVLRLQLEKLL

| Molecule | pIC50 [1] | pIC50 [2] |
| --- | --- | --- |
| Cn1cc(-c2cnc(N)c(C(=O)N[C@@H]3CCN(C(=O)Oc4ccc5cc(OCC6CCNCC6)ccc5c4)C3)c2)cn1 [Example 303] | 7.00 to 8.00 | 6.00 to 6.30 |
| Cn1cc(-c2cnc(N)c(C(=O)N[C@@H]3CCN(C(=O)Oc4cccc(OCC5CCC(N)CC5)c4)C3)c2)cn1 (stereo partly drawn) [Example 305, 3-(((1R,4R)-4-aminocyclohexyl)methoxy)phenyl (R)-3-(2-amino-5-(1-methyl-1H-pyrazol-4-yl)nicotinamido)pyrrolidine-1-carboxylate] | 6.00 to 7.00 | < 6.00 |
| Cn1cc(-c2cnc(N)c(C(=O)N[C@@H]3CCN(C(=O)c4ccc(-c5ccc(OCC6CCNCC6)cc5)cc4)C3)c2)cn1 [Example 550] | 7.00 to 8.00 | < 6.00 |
| Nc1cncc(-c2cnc(N)c(C(=O)N[C@@H]3CCN(C(=O)c4ccc(-c5ccc(F)cc5Cl)cc4)C3)c2)c1 [Example 583, (R)-5′,6-diamino-N-(1-(2′-chloro-4′-fluoro-[1,1′-biphenyl]-4-carbonyl)pyrrolidin-3-yl)-[3,3′-bipyridine]-1-5-carboxamide] | > 8.00 | < 6.00 |
| (R)-2-amino-N-(1 chlorophenyl)carbamoyl)pyrrolidin-3-yl)-5-(1-(1-methylpiperidin-4-yl)-1H-pyrazol-4-yl)nicotinamide [Example 11] | 7.00 to 8.00 | < 6.00 |
| (R)-2-amino-N-(1-(2′-chloro-[1,1′-biphenyl]-4-carbonyl)pyrrolidin-3-yl)-5-(4-(4-methylpiperazin-1-yl)phenyl)nicotinamide [Example 570] | > 8.00 | 6.30 to 7.00 |
| (R)-2-amino-N-(1-((4′-(dimethylamino)-[1,1′-biphenyl]-3-yl)carbamoyl)pyrrolidin-3-yl)-5-(1-methyl-1H-pyrazol-4-yl)nicotinamide [Example 263] | 7.00 to 8.00 | < 6.00 |
